# In US7589070B2, “Surface modification for improving biocompatibility” (The Children's Hospital of Philadelphia, priority 2001, dated 2009):
# Columns and labels:
# [1] = tested on: rat A10 arterial smooth muscle cells; assay: In vitro transduction of A10 cells by adenovirus GFP tethered to steel stents/rods; assay type: cell-based
# Experimental: A type 5 adenovirus vector encoding GFP was used in this experiment. Stainless steel stents were incubated with amino-pamidronate, SPDP and anti-adenovirus knob F(ab)′2 antibody; amino-pamidronate and SPDP; amino-pamidronate only; or a stent only, without modification. The specific anti-adenovirus knob F(ab′)2 bound stents were incubated in the ad-GFP solution for 1 hour at 37 C. The virus loading in the incubation pool was 1×10^8 pfu/stent for all groups. The stents were then removed from the virus pool and rinsed with PBS followed by overnight washing. Images obtained by atomic force microscopy confirmed that high levels of vector immobilization could be achieved by this method.
# The virus binding efficacy was evaluated in vitro using rat A10 arterial smooth muscle cells. A cell suspension of 5×10^4 A10 cells per ml of M199 medium was prepared with 10% FBS and 1% penicillin/streptomycin. The stent was rinsed with M199 medium once and equilibrated in the M199 medium at 37 C. for 10 minutes in a 6 well culture plate. The medium from the wells was aspirated, holding the stents, and 2 ml cell suspension was added to each well. Cell transduction was observed by fluorescence microscopy using a FITC filter. […] 90% of cells with adenovirus GFP anti-the antibody bound stent were transduced. […] Consequently, transduction efficiency is enhanced in vitro in antibody-bound stents compared to control stents.
# A10 smooth muscle cells were transduced with SPDP-anti-adenovirus knob F(ab)′2 antibody-adenovirus GFP bound stainless steel rods, and pretreated with either 1.5 M pamidronate, 3.0 M pamidronate or 5.0 M pamidronate. Cell transduction was proportional to the pamidronate concentration used in a reaction. […] Accordingly, A10 cell transduction efficiency is related to pamidronate concentration used in the reaction.
# [2] = Surface phosphorus content of pamidronate-treated steel by SEM and EDAX; assay type: physicochemical
compound,measurement,setting,value
"NCCC(O)(P(=O)(O)O)P(=O)(O)O [pamidronate, 3-amino-hydroxypropylidene-1,1-bisphosphonic acid]",cell transduction (qualitative),[1]; pretreated with 5 M pamidronate,did not show much increase in cell transduction
same,cell transduction (qualitative),[1]; steel rods pretreated with 1.5 M pamidronate,much less cell transduction
same,cell transduction (qualitative),[1]; steel rods pretreated with 3.0 M pamidronate,optimal
same,phosphorus percent by weight,"[2]; stainless steel rod after reaction with pamidronate at pH 5, EDAX",13%
same,phosphorus percent by weight,"[2]; stainless steel rod after reaction with pamidronate at pH 7, EDAX",1%
